Results on one compound are retold here after doi:10.1101/2025.10.21.683780 (bioRxiv, 2025).

One data set has as its target T1, OAT4 (Homo sapiens, UniProt Q9NSA0).
T1 construct: gene SLC22A11
T1 sequence (Q9NSA0 1-550): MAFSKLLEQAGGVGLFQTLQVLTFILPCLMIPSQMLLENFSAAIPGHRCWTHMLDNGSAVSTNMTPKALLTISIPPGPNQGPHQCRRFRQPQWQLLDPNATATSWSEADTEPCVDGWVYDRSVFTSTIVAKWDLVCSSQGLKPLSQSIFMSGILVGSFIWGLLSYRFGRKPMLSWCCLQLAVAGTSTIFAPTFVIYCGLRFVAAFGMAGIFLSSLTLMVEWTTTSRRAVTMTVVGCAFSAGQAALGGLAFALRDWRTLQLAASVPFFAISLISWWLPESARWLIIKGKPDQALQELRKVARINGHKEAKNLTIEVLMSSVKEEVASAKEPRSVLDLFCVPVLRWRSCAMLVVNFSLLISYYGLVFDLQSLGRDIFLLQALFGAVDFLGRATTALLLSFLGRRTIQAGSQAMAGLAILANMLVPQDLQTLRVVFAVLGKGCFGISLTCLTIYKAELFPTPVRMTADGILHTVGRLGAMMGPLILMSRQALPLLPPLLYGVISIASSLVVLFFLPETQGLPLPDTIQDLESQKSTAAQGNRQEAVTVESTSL
The data set can be described thus: inhibition of methotrexate uptake in OAT4-expressing HEK293 cells; also transported. In kind it is cell-based. The settings on record: read-out: Dicloxacillin / IC50 (95% CI).

The target of the next data set is T2, OATP1B3 (Homo sapiens, UniProt Q9NPD5).
T2 construct: gene SLCO1B3
T2 sequence (Q9NPD5 1-702): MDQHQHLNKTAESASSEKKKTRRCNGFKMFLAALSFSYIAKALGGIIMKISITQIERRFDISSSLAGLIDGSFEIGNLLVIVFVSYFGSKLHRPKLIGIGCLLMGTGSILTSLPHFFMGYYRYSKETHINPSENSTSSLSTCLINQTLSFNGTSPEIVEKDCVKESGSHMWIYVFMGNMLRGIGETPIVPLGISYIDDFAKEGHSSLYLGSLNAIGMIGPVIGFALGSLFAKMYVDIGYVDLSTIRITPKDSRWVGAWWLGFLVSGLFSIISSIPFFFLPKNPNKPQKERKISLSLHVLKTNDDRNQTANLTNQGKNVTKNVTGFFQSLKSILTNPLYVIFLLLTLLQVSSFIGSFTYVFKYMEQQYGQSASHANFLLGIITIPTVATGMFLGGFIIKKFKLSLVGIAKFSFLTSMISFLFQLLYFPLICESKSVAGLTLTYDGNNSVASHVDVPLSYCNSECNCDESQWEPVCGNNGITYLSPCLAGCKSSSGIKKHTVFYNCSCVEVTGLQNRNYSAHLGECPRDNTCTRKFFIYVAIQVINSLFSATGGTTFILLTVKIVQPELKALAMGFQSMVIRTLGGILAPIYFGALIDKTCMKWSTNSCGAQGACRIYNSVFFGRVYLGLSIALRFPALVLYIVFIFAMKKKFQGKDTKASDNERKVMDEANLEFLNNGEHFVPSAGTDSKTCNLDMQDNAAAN
In kind it is cell-based. Particulars: hek293 cells.

As for `Cc1onc(-c2c(Cl)cccc2Cl)c1C(=O)N[C@@H]1C(=O)N2[C@@H]1SC(C)(C)[C@@H]2C(=O)O` [dicloxacillin], the IC50 came to 7.23 µM on OAT4 and 6.68 µM against OATP1B3.
